Assays:
mGAT1 [1] = biological target: T1, mGAT1 (Mus musculus, UniProt P31648); test: competitive MS binding assay with NO711 as unlabeled marker (LC-ESI-MS/MS); details: in the presence of 100 μM inhibitor
T1 construct: expressed in transfected cells; host or cells: HEK-293
Description: Specific binding affinity toward mGAT1 was determined via a competitive mass spectrometry (MS) binding assay quantified by liquid chromatography–electrospray ionization tandem mass spectrometry (LC–ESI-MS/MS) with NO711 as an unlabeled marker.[50]
MS binding assays for mGAT1 were performed as described earlier.[50] Inhibition of mGAT1 binding by the synthesized compounds was determined in MS binding assays at a screening concentration of 100 μM and analyzed by LC–ESI-MS/MS.

mGAT4 = biological target: T2, mGAT4 (Mus musculus, UniProt P31650); test: [3H]GABA uptake assay in HEK-293 cells stably expressing mGAT4; type: cell-based; details: [3H]GABA uptake; read-out: pIC50 ± SEM mGAT4 (converted)
T2 construct: expressed in transfected cells; host or cells: HEK-293
T2 sequence (P31650 1-627): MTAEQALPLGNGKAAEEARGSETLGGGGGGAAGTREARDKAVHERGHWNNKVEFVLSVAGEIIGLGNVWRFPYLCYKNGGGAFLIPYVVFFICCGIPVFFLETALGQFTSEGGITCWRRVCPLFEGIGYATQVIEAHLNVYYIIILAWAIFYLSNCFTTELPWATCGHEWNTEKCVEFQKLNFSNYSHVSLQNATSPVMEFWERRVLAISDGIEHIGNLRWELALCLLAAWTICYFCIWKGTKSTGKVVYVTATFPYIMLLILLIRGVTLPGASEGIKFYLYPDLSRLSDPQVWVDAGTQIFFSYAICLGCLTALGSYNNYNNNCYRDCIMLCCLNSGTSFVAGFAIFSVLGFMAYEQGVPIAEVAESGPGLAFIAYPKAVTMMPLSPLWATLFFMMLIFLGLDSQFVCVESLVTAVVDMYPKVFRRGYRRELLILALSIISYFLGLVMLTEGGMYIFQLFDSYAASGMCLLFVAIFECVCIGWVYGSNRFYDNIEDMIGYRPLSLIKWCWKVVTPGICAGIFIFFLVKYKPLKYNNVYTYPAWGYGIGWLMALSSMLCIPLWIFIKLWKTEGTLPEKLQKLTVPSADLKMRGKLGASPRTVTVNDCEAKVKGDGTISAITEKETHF

mGAT3 = biological target: T3, mGAT3 (Mus musculus, UniProt P31649); test: [3H]GABA uptake assay in HEK-293 cells stably expressing mGAT3; type: cell-based; details: [3H]GABA uptake; read-out: pIC50 ± SEM mGAT3 (converted)
T3 construct: expressed in transfected cells; host or cells: HEK-293
T3 sequence (P31649 1-602): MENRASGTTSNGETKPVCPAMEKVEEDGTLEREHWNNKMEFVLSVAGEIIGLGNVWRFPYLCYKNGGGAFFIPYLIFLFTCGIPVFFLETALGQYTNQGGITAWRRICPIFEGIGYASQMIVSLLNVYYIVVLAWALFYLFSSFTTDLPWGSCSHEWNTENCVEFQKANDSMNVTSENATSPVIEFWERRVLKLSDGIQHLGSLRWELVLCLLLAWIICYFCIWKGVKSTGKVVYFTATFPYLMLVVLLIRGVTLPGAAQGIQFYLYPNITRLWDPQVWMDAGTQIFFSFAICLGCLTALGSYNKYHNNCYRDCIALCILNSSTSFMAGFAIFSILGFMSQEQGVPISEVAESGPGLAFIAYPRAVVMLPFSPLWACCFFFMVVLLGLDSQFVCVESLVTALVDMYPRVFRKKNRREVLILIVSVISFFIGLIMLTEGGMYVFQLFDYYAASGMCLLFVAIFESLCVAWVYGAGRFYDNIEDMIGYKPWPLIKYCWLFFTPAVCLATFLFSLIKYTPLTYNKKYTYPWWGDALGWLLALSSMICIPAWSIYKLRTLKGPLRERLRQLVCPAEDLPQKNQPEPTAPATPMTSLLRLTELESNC

mGAT2 = biological target: T4, mGAT2 (Mus musculus, UniProt P31651); test: [3H]GABA uptake assay in HEK-293 cells stably expressing mGAT2; type: cell-based; details: for IC50: [3H]GABA uptake, read-out: pIC50 ± SEM mGAT2 (converted); for remaining [3H]GABA uptake mGAT2: in the presence of 100 μM inhibitor
T4 construct: expressed in transfected cells; host or cells: HEK-293
T4 sequence (P31651 1-614): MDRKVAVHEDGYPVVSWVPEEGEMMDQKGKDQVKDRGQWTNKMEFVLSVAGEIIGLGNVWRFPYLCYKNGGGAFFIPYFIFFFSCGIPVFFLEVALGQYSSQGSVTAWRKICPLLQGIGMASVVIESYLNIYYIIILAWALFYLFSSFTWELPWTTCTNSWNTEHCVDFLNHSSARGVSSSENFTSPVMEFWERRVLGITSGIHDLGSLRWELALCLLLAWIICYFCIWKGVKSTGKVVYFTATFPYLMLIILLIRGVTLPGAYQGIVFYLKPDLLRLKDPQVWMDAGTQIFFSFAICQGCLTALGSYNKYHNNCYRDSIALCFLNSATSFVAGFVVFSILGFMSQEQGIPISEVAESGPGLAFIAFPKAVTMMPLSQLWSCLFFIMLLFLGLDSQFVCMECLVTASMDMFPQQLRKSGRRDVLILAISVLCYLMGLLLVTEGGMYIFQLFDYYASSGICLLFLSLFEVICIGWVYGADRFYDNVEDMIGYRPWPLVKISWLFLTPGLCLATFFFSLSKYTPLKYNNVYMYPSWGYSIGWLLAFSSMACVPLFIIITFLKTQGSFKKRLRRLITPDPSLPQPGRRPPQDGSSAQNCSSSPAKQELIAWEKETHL

mGAT1 [2] = biological target: T1, mGAT1; test: [3H]GABA uptake assay in HEK-293 cells stably expressing mGAT1; type: cell-based; details: for IC50: [3H]GABA uptake, read-out: pIC50 ± SEM mGAT1 (converted); for remaining [3H]GABA uptake mGAT1: in the presence of 100 μM inhibitor

| Compound | remaining NO711 binding mGAT1 (mGAT1 [1]) | IC50 (mGAT4) [µM] | IC50 (mGAT3) [µM] | IC50 (mGAT2) [µM] | IC50 (mGAT1 [2]) [µM] | remaining [3H]GABA uptake mGAT2 (mGAT2) | remaining [3H]GABA uptake mGAT1 (mGAT1 [2]) |
| --- | --- | --- | --- | --- | --- | --- | --- |
| Cc1ccsc1C(=C1CCN([C@H](C[C@@H](C)O)C(=O)NCc2ccccc2)CC1)c1sccc1C (relative stereo) [2RS,4RS-37a, N-Benzyl-2-{4-[bis(3-methylthiophen-2-yl)methylidene]piperidin-1-yl}-4-hydroxypentanamide] | 100 μM: 74% | 72.4 | 41.7 | 24.5 | 26.3 |  |  |
| Cc1ccsc1C(=C1CCN([C@H](C[C@@H](C)O)C(=O)NCc2ccc(F)cc2)CC1)c1sccc1C (relative stereo) [2RS,4RS-37c, 2-{4-[Bis(3-methylthiophen-2-yl)methylidene]piperidin-1-yl}-N-[(4-fluorophenyl)methyl]-4-hydroxypentanamide] | 100 μM: 76% | 19.5 | 11.5 | 15.8 | 17.8 |  |  |
| C[C@@H](O)C[C@H](C(=O)NCc1ccc(Cl)cc1)N(C)CCC=C1c2ccccc2CCc2ccccc21 (relative stereo) [2RS,4RS-39b, N-(4-Chlorobenzyl)-2-((3-(10,11-dihydro-5H-dibenzo[a,d][7]annulen-5-ylidene)propyl)(methyl)amino)-4-hydroxypentanamide] | 100 μM: 84% | 9.12 | 24 |  |  | 100 μM: 73% | 100 μM: 56% |
| Cc1ccsc1C(=C1CCN([C@H](C[C@H](C)O)C(=O)NCc2ccccc2)CC1)c1sccc1C (relative stereo) [2RS,4SR-37a, N-Benzyl-2-{4-[bis(3-methylthiophen-2-yl)methylidene]piperidin-1-yl}-4-hydroxypentanamide] | 100 μM: 78% | 27.5 | 61.7 |  | 29.5 | 100 μM: 60% |  |
| C[C@H](O)C[C@H](C(=O)NCc1ccc(Cl)cc1)N(C)CCC=C1c2ccccc2CCc2ccccc21 (relative stereo) [2RS,4SR-39b, N-(4-Chlorobenzyl)-2-((3-(10,11-dihydro-5H-dibenzo[a,d][7]annulen-5-ylidene)propyl)(methyl)amino)-4-hydroxypentanamide] | 100 μM: 87% | 9.12 | 10.2 |  |  | 100 μM: 73% | 100 μM: 51% |
| Cc1ccc(CNC(=O)[C@@H](C[C@H](C)O)N(C)CCC=C2c3ccccc3CCc3ccccc32)cc1 (relative stereo) [2RS,4SR-39c, 2-((3-(10,11-Dihydro-5H-dibenzo[a,d][7]annulen-5-ylidene)propyl)(methyl)amino)-4-hydroxy-N-(4-methylbenzyl)pentanamide] | 100 μM: 73% | 6.92 | 7.94 | 8.13 |  |  | 100 μM: 51% |
| Cc1ccsc1C(=C1CCN(C(CC(C)O)C(=O)NCc2ccccc2Cl)CC1)c1sccc1C (centres unmarked) [2RS,4RS-37b, 2-{4-[Bis(3-methylthiophen-2-yl)methylidene]piperidin-1-yl}-N-[(2-chlorophenyl)methyl]-4-hydroxypentanamide] | 100 μM: 94% | 61.7 | 93.3 |  |  | 100 μM: 58% | 100 μM: 52% |
| CC(O)CC(C(=O)NCc1ccc(F)cc1)N(C)CCC=C1c2ccccc2CCc2ccccc21 (centres unmarked) [2RS,4RS-39a, 2-((3-(10,11-Dihydro-5H-dibenzo[a,d][7]annulen-5-ylidene)propyl)(methyl)amino)-N-(4-fluorobenzyl)-4-hydroxypentanamide] | 100 μM: 110% | 25.1 | 14.8 | 12.6 |  |  | 100 μM: 51% |
| Cc1ccc(CNC(=O)C(CO)N(C)CCC=C2c3ccccc3CCc3ccccc32)cc1 (centres unmarked) [Compound 56e, 2-((3-(10,11-Dihydro-5H-dibenzo[a,d][7]annulen-5-ylidene)propyl)(methyl)amino)-3-hydroxy-N-(4-methylbenzyl)propanamide] |  | 11.2 | 20.4 | 28.8 | 18.6 |  |  |

From PMC8397297 (ACS Chemical Neuroscience, 2021)
